Laboratory results published in ChEMBL document CHEMBL4311944, “Discovery of 3-Oxabicyclo[4.1.0]heptane, a Non-nitrogen Containing Morpholine Isostere, and Its Application in Novel Inhibitors of the PI3K-AKT-mTOR Pathway” (J Med Chem, 2019).
Converted amounts (≈) assume the structure as drawn.

How the values were obtained:
[1] = Intrinsic clearance in rat microsomes; type: ADME, Microsome
[2] = Intrinsic clearance in human microsomes; type: ADME, Microsome
[3] = target: Phosphatidylinositol 4,5-bisphosphate 3-kinase catalytic subunit alpha isoform (Homo sapiens, UniProt P42336)
Phosphatidylinositol 4,5-bisphosphate 3-kinase catalytic subunit alpha isoform, sequence (P42336 whole entry, canonical isoform): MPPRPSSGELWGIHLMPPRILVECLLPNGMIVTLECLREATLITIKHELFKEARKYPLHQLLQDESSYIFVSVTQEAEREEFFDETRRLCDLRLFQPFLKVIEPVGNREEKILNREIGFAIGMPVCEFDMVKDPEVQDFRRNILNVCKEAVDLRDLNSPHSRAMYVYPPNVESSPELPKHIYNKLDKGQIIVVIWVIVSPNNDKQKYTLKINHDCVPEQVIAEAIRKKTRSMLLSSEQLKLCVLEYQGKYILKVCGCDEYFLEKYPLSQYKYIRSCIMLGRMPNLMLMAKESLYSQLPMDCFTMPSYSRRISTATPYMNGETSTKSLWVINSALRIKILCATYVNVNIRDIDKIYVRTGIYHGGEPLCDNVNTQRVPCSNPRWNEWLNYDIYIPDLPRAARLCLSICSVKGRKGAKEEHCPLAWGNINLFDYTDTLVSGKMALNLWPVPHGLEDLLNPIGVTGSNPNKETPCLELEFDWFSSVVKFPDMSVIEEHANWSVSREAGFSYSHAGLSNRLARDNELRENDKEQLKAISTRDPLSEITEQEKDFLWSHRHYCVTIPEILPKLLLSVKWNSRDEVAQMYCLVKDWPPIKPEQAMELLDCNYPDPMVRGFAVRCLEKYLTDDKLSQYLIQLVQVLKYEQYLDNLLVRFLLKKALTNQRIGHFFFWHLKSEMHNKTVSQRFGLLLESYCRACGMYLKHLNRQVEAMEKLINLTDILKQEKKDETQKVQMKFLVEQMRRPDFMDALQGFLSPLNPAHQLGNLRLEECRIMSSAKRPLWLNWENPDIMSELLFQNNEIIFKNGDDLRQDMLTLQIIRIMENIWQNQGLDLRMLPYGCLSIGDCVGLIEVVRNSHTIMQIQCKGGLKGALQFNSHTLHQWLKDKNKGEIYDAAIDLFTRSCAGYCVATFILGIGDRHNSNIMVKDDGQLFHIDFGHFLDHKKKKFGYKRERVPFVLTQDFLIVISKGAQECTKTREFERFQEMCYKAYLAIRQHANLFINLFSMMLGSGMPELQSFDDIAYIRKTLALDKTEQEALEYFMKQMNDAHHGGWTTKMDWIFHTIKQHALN
Description: Inhibition of PI3Kalpha (unknown origin) using PIP2 as substrate preincubated for 15 mins followed by substrate addition and measured after 1 hr by HTRF assay

[4] = Intrinsic clearance in human hepatocytes; type: ADME, cell-based, Hepatocyte
[5] = Kinetic solubility of the compound in pH 7.4 phosphate buffered saline measured after 1 hr; type: physicochemical; details: read-out: Kinetic_solubility
[6] = Intrinsic clearance in rat hepatocytes; type: ADME, cell-based, Hepatocyte
[7] = Lipophilicity, logP of the compound by reversed phase column chromatography; type: physicochemical
[8] = Inhibition of PI3K/AKT/mTOR in human lung fibroblasts assessed as reduction in AKT phosphorylation at serine473 residue preincubated for 1 hr followed by PDGF-BB stimulation and measured after 10 mins by electrochemiluminescence method
[9] = Inhibition of ligand binding to mTORC1/mTORC2 in human HuT78 cells after 2 hrs by kinobead competition binding assay; type: cell-based
[10] = target: T1, Phosphatidylinositol 4,5-bisphosphate 3-kinase catalytic subunit delta isoform (Homo sapiens, UniProt O00329); assay: Inhibition of PI3Kdelta (unknown origin) using PIP2 as substrate preincubated for 15 mins followed by substrate addition and measured after 1 hr by HTRF assay
T1 sequence (O00329 whole entry): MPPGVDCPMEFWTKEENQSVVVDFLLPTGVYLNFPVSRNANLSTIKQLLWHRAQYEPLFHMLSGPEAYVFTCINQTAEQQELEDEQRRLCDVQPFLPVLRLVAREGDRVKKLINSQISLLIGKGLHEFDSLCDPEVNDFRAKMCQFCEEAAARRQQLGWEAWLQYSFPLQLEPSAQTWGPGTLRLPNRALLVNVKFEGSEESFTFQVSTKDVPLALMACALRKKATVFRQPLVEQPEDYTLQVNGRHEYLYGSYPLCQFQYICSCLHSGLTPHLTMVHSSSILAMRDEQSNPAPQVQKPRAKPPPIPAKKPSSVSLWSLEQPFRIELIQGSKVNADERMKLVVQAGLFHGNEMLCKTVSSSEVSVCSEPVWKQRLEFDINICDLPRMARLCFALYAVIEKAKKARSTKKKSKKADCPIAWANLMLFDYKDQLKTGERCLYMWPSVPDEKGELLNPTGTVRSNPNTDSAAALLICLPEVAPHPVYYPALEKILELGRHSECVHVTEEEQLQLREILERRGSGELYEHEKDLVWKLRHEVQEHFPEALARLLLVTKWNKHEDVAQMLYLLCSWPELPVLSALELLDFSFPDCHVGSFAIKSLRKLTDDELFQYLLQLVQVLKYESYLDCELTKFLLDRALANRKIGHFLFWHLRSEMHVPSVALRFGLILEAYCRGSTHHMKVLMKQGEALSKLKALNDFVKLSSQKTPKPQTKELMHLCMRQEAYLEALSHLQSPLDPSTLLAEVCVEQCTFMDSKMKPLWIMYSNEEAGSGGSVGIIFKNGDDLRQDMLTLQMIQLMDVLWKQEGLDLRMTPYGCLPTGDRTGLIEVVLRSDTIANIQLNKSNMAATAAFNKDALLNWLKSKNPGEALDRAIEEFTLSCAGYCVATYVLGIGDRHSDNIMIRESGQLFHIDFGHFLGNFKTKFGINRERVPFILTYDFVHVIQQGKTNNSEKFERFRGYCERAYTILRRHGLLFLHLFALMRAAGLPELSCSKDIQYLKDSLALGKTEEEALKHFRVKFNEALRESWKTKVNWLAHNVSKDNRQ

Row | SMILES | CL [1] [mL/min/g] | CL [2] [mL/min/g] | IC50 [3] [µM] | CLH [4] [mL/min/g] | solubility kinetic at 1 h [5] [µg/mL] | CLH [6] [mL/min/g] | logP [7] | IC50 [8] [µM] | pIC50 [9] | IC50 [10] [µM]
1 | CC(C)(c1cc([C@]23CCOC[C@H]2C3)nc(-c2ccc(NC(=S)NCCO)cc2)n1)S(C)(=O)=O | 1.4 | 3.1 | 25.1 | 5.1 | 173 (≈ 353 µM) | 13 | 3.9 | 0.0316 | 8.6 | 31.6
2 | C[C@H]1COCCN1c1cc(C(C)(C)S(C)(=O)=O)nc(-c2ccc(NC(=S)NCCO)cc2)n1 | 0.8 | 0.9 | – | 0.9 | – | 2.8 | 3.6 | 0.0398 | 8.4 | –
3 | CCNC(=O)Nc1ccc(-c2nccc([C@]34CCOC[C@H]3C4)n2)cc1 | 13.6 | 1.5 | 25.1 | – | 125 (≈ 369 µM) | – | 3.9 | 2 | 6.1 | 25.1
